Results: publication PMC8126888 (RSC Medicinal Chemistry, 2020)
Where two headings read alike, the source gives them in different places.

Tests used:
in vitro [1] = conditions: human, microsomes, human liver microsomes
in vitro [2] = conditions: human
[3] = system: primary peritoneal mouse macrophages (PMM); assay: cells; conditions: Macrophage
[4] = system: Leishmania infantum MHOM/MA(BE)/67/ITMAP263 intracellular amastigotes; assay: microbe, parasite or virus in culture; conditions: Macrophage, in Mus musculus
in vitro [5] = conditions: PAMPA
[6] = system: Trypanosoma cruzi, Tulahuen CL2, beta-galactosidase strain; assay: microbe, parasite or virus in culture
physchem = conditions: HPLC, Ascentis Express RP Amide column, pH 7.4, eLogD, experimental
in vitro [7] = conditions: human, HepG2 cells
in vitro [8] = conditions: mouse, microsomes, pH 7.4, MLM CLint (uL/min/mg), mouse liver microsomes
in vitro [9] = conditions: human, HFF-1 cells
in vitro [10] = conditions: PAMPA; remark: listed apart in the source
[11] = read-out: L. Inf. pIC50, from L. infantum intracellular amastigote IC50 (converted)
[12] = read-out: L. infantum MHOM/MA(BE)/67/ITMAP263 intracellular amastigotes IC50, intracellular amastigotes
[13] = MRC5, read-out: T. cruzi Tulahuen C4 (LacZ) IC50
[14] = read-out: L. infantum MHOM/MA(BE)/67/ITMAP263 intracellular amastigotes IC50 (uM), intracellular amastigotes
[15] = MRC5, read-out: T. cruzi Tulahuen C4 (LacZ) IC50 (uM)

Row | SMILES | microsomal CLint at 0.5 μM (in vitro [1]; pH 7.4, HLM CLint) | CC50 at 3 days (in vitro [2]) | IC50 ([3]; read-out: PMM IC50) | IC50 [4, 11] | IC50 [4, 12] | Papp (in vitro [5]) | IC50 [6, 13] | chromatographic logD (physchem) | microsomal CLint at 0.5 μM (in vitro [1]; pH 7.4, HLM CLint (uL/min/mg)) | IC50 ([3]; read-out: PMM IC50 (uM)) | IC50 [4, 14] | CC50 (in vitro [7]) | microsomal CLint at 0.5 μM (in vitro [8]) | IC50 [6, 15] | CC50 (in vitro [9]) | Papp (in vitro [10])
1 | COc1ccc(C(=O)N2CCOCC2)cc1S(=O)(=O)N(Cc1ccccc1)Cc1ccccc1 [DNDI0003368296] | 810 µL/min/mg | > 64 µM | 45.2 µM | 0.457 µM | 0.46 µM | 6.19 ×10⁻⁶ cm/s | > 64 µM |  |  |  |  |  |  |  |  | 
2 | COc1ncccc1S(=O)(=O)N(Cc1ccccc1)Cc1ccccc1 [DNDI0003368299] | 849 µL/min/mg | 3.81 µM | > 64 µM | 0.646 µM | 0.64 µM | 2.05 ×10⁻⁶ cm/s | 6.34 µM |  |  |  |  |  |  |  |  | 
3 | COc1ccc(OC)c(S(=O)(=O)N(Cc2ccc(F)cc2)Cc2nc(C)no2)c1 [DNDI0003368295] | 350 µL/min/mg | > 64 µM | > 64 µM | 7.76 µM | 7.75 µM | 8.92 ×10⁻⁶ cm/s | 30 µM |  |  |  |  |  |  |  |  | 
4 | COCCN(Cc1ccc(F)cc1)S(=O)(=O)c1cc(C#N)ccc1OC [DNDI0003368395] | < 23 µL/min/mg | > 64 µM | > 64 µM | 8.91 µM | 8.88 µM | 15.3 ×10⁻⁶ cm/s | > 64 µM |  |  |  |  |  |  |  |  | 
5 | CN(C)CCN(Cc1ccccc1)S(=O)(=O)c1ccccc1S(C)(=O)=O [DNDI0003367255] |  | > 64 µM | > 64 µM | > 64 µM | > 64 µM | 2.04 ×10⁻⁶ cm/s | > 64 µM | 2.6 |  |  |  |  |  |  |  | 
6 | COc1ccc(C(=O)N2CCOCC2)cc1S(=O)(=O)N(Cc1ccc(F)cc1)Cc1ccccc1Cl [DNDI0003389128] |  | 36.8 µM |  | 1.41 µM |  |  |  | 4.1 | 351 µL/min/mg | > 64 µM | 1.4 µM | > 64 µM | 1660 µL/min/mg | 9.66 µM | 10.5 µM | 9 ×10⁻⁶ cm/s
7 | COc1ccc(CNC2COC2)cc1S(=O)(=O)N(Cc1ccc(F)cc1)Cc1ccc(F)cc1 [DNDI0003389115] |  | 41.7 µM |  | 1.78 µM |  |  |  | 4 | 147 µL/min/mg | > 64 µM | 1.79 µM | > 64 µM | 384 µL/min/mg | 14.4 µM | 51.7 µM | 3.42 ×10⁻⁶ cm/s
8 | COc1ccccc1S(=O)(=O)N(Cc1ccccc1)CC(O)c1ccc(F)cc1 (stereo not drawn) [DNDI0003389317] |  | 40.7 µM |  | 11.5 µM |  |  |  | 4.1 | 610 µL/min/mg | > 64 µM | 11.6 µM | > 64 µM | 1240 µL/min/mg | 26.6 µM | 10.5 µM | 11.8 ×10⁻⁶ cm/s
9 | COc1ccc(-c2nc(C)no2)cc1S(=O)(=O)N(Cc1ccc(F)cc1)Cc1ccc(F)cc1 [DNDI0003388085] |  | > 64 µM |  | 5.62 µM |  |  |  | 4.6 | 177 µL/min/mg | > 64 µM | 5.68 µM | > 64 µM | 739 µL/min/mg | > 64 µM | 38.6 µM | 1.74 ×10⁻⁶ cm/s
10 | CS(=O)(=O)c1ccccc1S(=O)(=O)N(Cc1ccccc1)Cc1ccccc1 [DNDI0003389642] |  | > 64 µM |  | 32.4 µM |  |  |  | 4.1 | 248 µL/min/mg | > 64 µM | 32 µM | > 64 µM | 502 µL/min/mg | 24.3 µM | 38.1 µM | 6.25 ×10⁻⁶ cm/s
11 | COc1ccc(C(=O)O)cc1S(=O)(=O)N(Cc1ccccc1)Cc1ccccc1 [DNDI0003368287] | < 23 µL/min/mg | > 64 µM | > 64 µM | 57.5 µM | 57 µM | 17.8 ×10⁻⁶ cm/s | > 64 µM |  |  |  |  |  |  |  |  | 
12 | COc1ccc(C(=O)NCCO)cc1S(=O)(=O)N(Cc1ccc(F)cc1)Cc1ccc(F)cc1 [DNDI0003371176] |  | > 64 µM |  | 2.51 µM |  |  |  | 3.8 | 131 µL/min/mg | > 64 µM | 2.53 µM | > 64 µM | 410 µL/min/mg | 44.3 µM | > 64 µM | 5.78 ×10⁻⁶ cm/s
13 | N#Cc1ccc(O)c(S(=O)(=O)N(Cc2ccc(F)cc2)Cc2ccc(F)cc2)c1 [DNDI0003389125] |  | 4 µM |  | 30.9 µM |  |  |  | 3.5 | 33 µL/min/mg | 45.2 µM | 30.7 µM | > 64 µM | 366 µL/min/mg | 16.8 µM | 7.8 µM | 13.2 ×10⁻⁶ cm/s
14 | COc1ccc(CN(Cc2ccc(F)cc2)S(=O)(=O)c2cc(F)ccc2OCCN(C)C)cc1 [DNDI0003378485] |  | 6.43 µM |  | 3.24 µM |  |  |  | 5 | 183 µL/min/mg | 8 µM | 3.24 µM | 9.1 µM | 1080 µL/min/mg | 6.96 µM | 1.95 µM | 0.29 ×10⁻⁶ cm/s
15 | COc1ccc(Cl)cc1S(=O)(=O)N(Cc1ccccc1)CC(O)c1ccc(F)cc1 (stereo not drawn) [DNDI0003389316] |  | 23.5 µM |  | 12 µM |  |  |  | 3.1 | 298 µL/min/mg | > 64 µM | 12 µM | 51.5 µM | 147 µL/min/mg | 17.8 µM | 4.75 µM | 4 ×10⁻⁶ cm/s
16 | COCCNC(=O)c1ccc(OC)c(S(=O)(=O)N(Cc2ccc(F)cc2)Cc2ccc(F)cc2)c1 [DNDI0003371177] |  | > 64 µM |  | 1.02 µM |  |  |  | 4.1 | 407 µL/min/mg | > 64 µM | 1.03 µM | 54.1 µM | 1670 µL/min/mg | 40.4 µM | > 64 µM | 8.63 ×10⁻⁶ cm/s
17 | COc1ccc(C#N)cc1S(=O)(=O)N(Cc1ccccc1)Cc1ccccc1 [DNDI0003366138] | 304 µL/min/mg | 40.4 µM | > 64 µM | 0.437 µM | 0.44 µM | 3.93 ×10⁻⁶ cm/s | 8.16 µM |  |  |  |  |  |  |  |  | 
18 | O=S(=O)(c1ccccn1)N(Cc1ccccc1)Cc1ccccc1 [DNDI0003389646] |  | > 64 µM |  | 16.2 µM |  |  |  | 4 | 218 µL/min/mg | > 64 µM | 16.1 µM | > 64 µM | 449 µL/min/mg | 27.7 µM | 33.8 µM | 9.55 ×10⁻⁶ cm/s
19 | COc1ccc(C(=O)N2CCN(C)CC2)cc1S(=O)(=O)N(Cc1ccc(F)cc1)Cc1ccc(F)cc1 [DNDI0003371173] |  | 25.8 µM |  | 0.537 µM |  |  |  | 4.7 | 585 µL/min/mg | 32 µM | 0.54 µM | 49.5 µM | 2240 µL/min/mg | 11.1 µM | 4.16 µM | 3.23 ×10⁻⁶ cm/s
20 | COc1ccc(OC)c(S(=O)(=O)N(Cc2ccc(F)cc2)C2CCOCC2)c1 [DNDI0003388086] |  | > 64 µM |  | > 64 µM |  |  |  | 3.7 | 49 µL/min/mg | > 64 µM | > 64 µM | > 64 µM | 599 µL/min/mg | 45 µM | > 64 µM | 31.9 ×10⁻⁶ cm/s
